We go through 15 compounds from US9751837B2, “Kinase inhibitors” (RESPIVERT LIMITED, priority 2014, dated 2017).

Molecules are shown by their SMILES. Converted amounts (≈) assume the structure as drawn.

By thermodynamic solubility is commonly meant the concentration in solution at equilibrium with solid.

Data set [1] can be described thus: Solubility in fasted-state simulated colonic fluid (FaSSCoF) at pH 6.5. Type of data set: physicochemical. The settings on record: 25 °C, pH 6.5, fassgf or other biorelevant, thermodynamic from solid. How it is done:
The solubilities of compounds of the invention in FaSSCoF at pH 6.5 are determined using a modification of a previously-reported procedure (Vertzoni, M., et al. Pharm. Res. 2010, 27, 2187-2196). In place of the bile salt extract employed in the original procedure (which extract is no longer available), the modified procedure uses a mixture of sodium taurochlorate (0.15 g), glycocholic acid (0.15 g), ursodeoxycholic acid (0.05 g), cholic acid (0.05 g), and glycodeoxycholic acid (0.05 g). These five bile acids are ground together with a mortar and pestle to produce a fine white powder that is incorporated into the FaSSCoF, as outlined below.
Tris(hydroxymethyl)aminomethane (Tris; 0.275 g) and maleic acid (0.44 g) are dissolved in water (35 mL) to give a solution whose pH is adjusted to 6.5 by treatment with 0.5M NaOH (ca. 12 mL). The solution is then made up to 50 mL with water. A portion of this Tris/maleate buffer solution (ca. 25 mL) is added to a 0.5 L round-bottomed flask, before being treated with 0.00565 g of the bile acid mixture described above. Solutions of phosphatidylcholine (0.0111 g) in DCM (0.15 mL) and palmitic acid (0.0013 g) in DCM (0.15 mL) are added, then the organic solvent is evaporated off under reduced pressure at 40° C. until a clear solution, with no perceptible DCM odour, is achieved. The volume of the evaporated solution is adjusted to 50 mL by addition of the remainder of Tris/maleate buffer, then BSA (0.115 g) is added, before being dissolved by gentle agitation.
Test compounds are suspended in the pH 6.5 FaSSCoF medium to give a maximum final concentration of 2-10 mg/mL. The suspensions are equilibrated at 25° C. for 24 h, before being filtered through a glass fibre C filter. The filtrates are then diluted as appropriate for injection and quantification by HPLC with reference to a standard. Different volumes of the standard, diluted and undiluted sample solutions are injected and the solubilities are calculated using the peak areas determined by integration of the peak found at the same retention time as the principal peak in the standard injection.

The test system of data set [2] is Jurkat cells. Description: Cell cytotoxicity assay (r). Conditions: 24 hours. Type of data set: cell-based, human. Here is the method:
1×10^5 Jurkat cells (immortalised human T lymphocytes) are added to the appropriate number of wells of a 96 well plate in 100 μL of media (RPMI supplemented with 10% foetal bovine serum). 1 μL of DMSO control (final concentration 1.0% v/v) or test compound (final concentration 20, 5 or 1 μg/mL) is added to the wells and incubated at 37° C., 5% CO2. After 24 hours, the plate is centrifuged at 1200 rpm for 3 minutes and the supernatant discarded. Cells are then resuspended in 150 μL (final concentration 7.5 μg/mL) of propidium iodide (PI) in PBS and incubated at 37° C., 5% CO2 for 15 minutes. After 15 minutes, cells are analysed by flow cytometry (BD accuri) using the FL3 window. The % viability is calculated as the % of cells that are PI negative in the test wells normalised to the DMSO control.

The mark [3] stands for this setting: pH 6.5 FaSSCoF Solubility (mg/mL) Run 1.
[4] abbreviates: pH 6.5 FaSSCoF Solubility (mg/mL) Run 2.

For `COc1cc(Nc2nccc(Oc3ccc(NC(=O)Nc4cc(C(C)(C)C)cc(NS(C)(=O)=O)c4OC)c4ccccc34)n2)ccc1C(=O)NCCC1CCN(C)CC1` [17(an), 4-((4-((4-(3-(5-(tert-butyl)-2-methoxy-3-(methylsulfonamido)phenyl)ureido)naphthalen-1-yl)oxy)pyrimidin-2-yl)amino)-2-methoxy-N-(2-(1-methylpiperidin-4-yl)ethyl)benzamide], the thermodynamic solubility at 24 h was 47 µg/mL (≈ 57 µM) in data set [1] (setting [3]) and 49 µg/mL (≈ 59.4 µM) in data set [1] (setting [4]). In addition, the “% Viability at 20 μg/mL” value in data set [2] was 1.1%.

For `COc1cc(Nc2nccc(Oc3ccc(NC(=O)Nc4cc(C(C)(C)C)cc(NS(C)(=O)=O)c4OC)c4ccccc34)n2)ccc1C(=O)NCCCN1CCOCC1` [17(ao), 4-((4-((4-(3-(5-(tert-Butyl)-2-methoxy-3-(methylsulfonamido)phenyl)ureido)naphthalen-1-yl)oxy)pyrimidin-2-yl)amino)-2-methoxy-N-(3-morpholinopropyl)benzamide], the thermodynamic solubility at 24 h in data set [1] (setting [3]) and in data set [1] (setting [4]) was 9 µg/mL (≈ 10.9 µM) each time. The “% Viability at 20 μg/mL” value in data set [2] came to 1.6%.

With `COc1cc(Nc2cc(Oc3ccc(NC(=O)Nc4cc(C(C)(C)C)cc(NS(C)(=O)=O)c4OC)c4ccccc34)ccn2)ccc1C(=O)NCCCCCN(C)C` [17(bd), 4-((4-((4-(3-(5-(tert-Butyl)-2-methoxy-3-(methylsulfonamido)phenyl)ureido)naphthalen-1-yl)oxy)pyridin-2-yl)amino)-N-(5-(dimethylamino)pentyl)-2-methoxybenzamide], the “% Viability at 20 μg/mL” value in data set [2] is 0.1%.

For `CCN1CCN(CCNC(=O)c2ccc(Nc3cc(Oc4ccc(NC(=O)Nc5cc(C(C)(C)C)cc(NS(C)(=O)=O)c5OC)c5ccccc45)ccn3)cc2OC)CC1` [17(be), 4-((4-((4-(3-(5-(tert-Butyl)-2-methoxy-3-(methylsulfonamido)phenyl)ureido)naphthalen-1-yl)oxy)pyridin-2-yl)amino)-N-(2-(4-ethylpiperazin-1-yl)ethyl)-2-methoxybenzamide], in data set [2], the “% Viability at 5 μg/mL” value is reported as 0.7% and the “% Viability at 20 μg/mL” value is reported as 0.5%.

In the case of `COc1cc(Nc2cc(Oc3ccc(NC(=O)Nc4cc(C(C)(C)C)cc(NS(C)(=O)=O)c4OC)c4ccccc34)ccn2)ccc1C(=O)NCCN1CCN(C)CC1(C)C` [17(bi), 4-((4-((4-(3-(5-(tert-Butyl)-2-methoxy-3-(methylsulfonamido)phenyl)ureido)naphthalen-1-yl)oxy)pyridin-2-yl)amino)-2-methoxy-N-(2-(2,2,4-trimethylpiperazin-1-yl)ethyl)benzamide], in data set [2], the “% Viability at 5 μg/mL” value is listed as 0.8% and the “% Viability at 20 μg/mL” value is recorded as 0.6%.

Consider `CCC(=O)NS(=O)(=O)c1ccc(Nc2nccc(Oc3ccc(NC(=O)Nc4cc(C(C)(C)C)cc(NS(C)(=O)=O)c4OC)c4ccccc34)n2)cc1OC` [17(bk), N-((4-((4-((4-(3-(5-(tert-Butyl)-2-methoxy-3-(methylsulfonamido)phenyl)ureido)-naphthalen-1-yl)oxy)pyrimidin-2-yl)amino)-2-methoxyphenyl)sulfonyl)propionamide], for which the “% Viability at 1 μg/mL” value in data set [2] is 93.0%.

Regarding `COc1cc(Nc2cc(Oc3ccc(NC(=O)Nc4cc(NS(C)(=O)=O)cc(C(C)(C)C)c4)c4ccccc34)ccn2)ccc1C(=O)NCCC1CCN(C)CC1` [17(bs), 4-((4-((4-(3-(3-(tert-Butyl)-5-(methylsulfonamido)phenyl)ureido)naphthalen-1-yl)oxy)pyridin-2-yl)amino)-2-methoxy-N-(2-(1-methylpiperidin-4-yl)ethyl)benzamide], the “% Viability at 20 μg/mL” value in data set [2] worked out at 0.3%.

In the case of `COc1cc(Nc2nccc(Oc3ccc(NC(=O)Nc4cc(C(C)(C)C)cc(NS(C)(=O)=O)c4OC)c4ccccc34)n2)ccc1C(=O)NCCOCCOCCO` [17(by), 4-((4-((4-(3-(5-(tert-Butyl)-2-methoxy-3-(methylsulfonamido)phenyl)ureido)naphthalen-1-yl)oxy)pyrimidin-2-yl)amino)-N-(2-(2-(2-hydroxyethoxy)ethoxy)ethyl)-2-methoxybenzamide], the “% Viability at 20 μg/mL” value in data set [2] is 1.6%.

`COc1cc(Nc2cc(Oc3ccc(NC(=O)Nc4cc(C(C)(C)C)cc(NS(C)(=O)=O)c4OC)c4ccccc34)ccn2)ccc1S(=O)(=O)CCCN1CCN(C)CC1` [17(ch), N-(5-(tert-Butyl)-2-methoxy-3-(3-(4-((2-((3-methoxy-4-((3-(4-methylpiperazin-1-yl)propyl)sulfonyl)phenyl)amino)pyridin-4-yl)oxy)naphthalen-1-yl)ureido)phenyl)methanesulfonamide]: in data set [2], the “% Viability at 1 μg/mL” value came out at 82.0% and the “% Viability at 20 μg/mL” value is 0.7%.

As to `COc1cc(Nc2cc(Oc3ccc(NC(=O)Nc4cc(C(C)(C)C)cc(NS(C)(=O)=O)c4OC)c4ccccc34)ccn2)ccc1C(=O)N[C@@H]1CCN(C)C1` [17(cq), (R)-4-((4-((4-(3-(5-(tert-Butyl)-2-methoxy-3-(methylsulfonamido)phenyl)ureido)-naphthalen-1-yl)oxy)pyridin-2-yl)amino)-2-methoxy-N-(1-methylpyrrolidin-3-yl)benzamide], in data set [2], the “% Viability at 5 μg/mL” value turned out to be 9.0% and the “% Viability at 20 μg/mL” value turned out to be 0.7%.

For `COc1cc(Nc2cc(Oc3ccc(NC(=O)Nc4cc(C(C)(C)C)cc(NS(C)(=O)=O)c4OC)c4ccccc34)ccn2)ccc1C(=O)NCCN1CC[C@@H](O)C1` [17(cr), (R)-4-((4-((4-(3-(5-(tert-Butyl)-2-methoxy-3-(methylsulfonamido)phenyl)ureido)-naphthalen-1-yl)oxy)pyridin-2-yl)amino)-N-(2-(3-hydroxypyrrolidin-1-yl)ethyl)-2-methoxybenzamide], in data set [2], the “% Viability at 5 μg/mL” value turned out to be 18.0% and the “% Viability at 20 μg/mL” value amounted to 0.9%.

For `COc1cc(Nc2cc(Oc3ccc(NC(=O)Nc4cc(C(C)(C)C)cc(NS(C)(=O)=O)c4OC)c4ccccc34)ccn2)ccc1S(=O)(=O)N(C)CCCN1CCN(C)CC1` [Example 25, 4-((4-((4-(3-(5-(tert-Butyl)-2-methoxy-3-(methylsulfonamido)phenyl)ureido)naphthalen-1-yl)oxy)pyridin-2-yl)amino)-2-methoxy-N-methyl-N-(3-(4-methylpiperazin-1-yl)propyl)benzenesulfonamide], the “% Viability at 20 μg/mL” value in data set [2] is on record as 0.7%.

As to `COc1cc(Nc2cc(Oc3ccc(NC(=O)Nc4cc(C(C)(C)C)cc(NS(C)(=O)=O)c4OC)c4ccccc34)ccn2)ccc1C(=O)NCCC1CCNCC1` [Example 27, 4-((4-((4-(3-(5-(tert-Butyl)-2-methoxy-3-(methylsulfonamido)phenyl)ureido)naphthalen-1-yl)oxy)pyridin-2-yl)amino)-2-methoxy-N-(2-(piperidin-4-yl)ethyl)benzamide], the “% Viability at 20 μg/mL” value in data set [2] is on record as 1.7%.

Consider `COc1cc(Nc2cc(Oc3ccc(NC(=O)Nc4cc(C(C)(C)C)cc(C(=O)NCCO)c4OC)c4ccccc34)ccn2)ccc1C(=O)NCCN1CC[S+]([O-])CC1` [Example 32, 5-(tert-Butyl)-N-(2-hydroxyethyl)-2-methoxy-3-(3-(4-((2-((3-methoxy-4-((2-(1-oxidothiomorpholino)ethyl)carbamoyl)phenyl)amino)pyridin-4-yl)oxy)naphthalen-1-yl)ureido)benzamide], for which the “% Viability at 20 μg/mL” value in data set [2] amounted to 2.5%.

Turning to `COc1cc(Nc2cc(Oc3ccc(NC(=O)Nc4cc(C(C)(C)C)cc(NS(C)(=O)=O)c4OC)c4ccccc34)ccn2)ccc1C(=O)NC[C@H](O)[C@H](O)[C@H](O)CO` [Example 42, 4-((4-((4-(3-(5-(tert-Butyl)-2-methoxy-3-(methylsulfonamido)phenyl)ureido)naphthalen-1-yl)oxy)pyridin-2-yl)amino)-2-methoxy-N-((2S,3S,4R)-2,3,4,5-tetrahydroxypentyl)benzamide], the solubility (thermodynamic) at 24 h in data set [1] (setting [3]) is 7 µg/mL (≈ 8.4 µM); in data set [1] (setting [4]), 9 µg/mL (≈ 10.8 µM).
